Measured values taken from the supplement of paper PMC10307832.

How the values were obtained:
Test in all cases: relative viability (nuclei count vs DMSO), 5 days (fraction); higher = more cells survive
Vismodegib + Olaparib = compound: CS(=O)(=O)c1ccc(C(=O)Nc2ccc(Cl)c(-c3ccccn3)c2)c(Cl)c1 [Vismodegib] + O=C(c1cc(Cc2n[nH]c(=O)c3ccccc23)ccc1F)N1CCN(C(=O)C2CC2)CC1 [Olaparib] (partner 8 µM)
Procedure, shortened: (§1)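 Lung cancer cell lines in 1536-well plates were dosed by pin tool the day after seeding, either with one drug alone or with a fixed anchor-drug dose plus five library-drug doses (not always all listed) in √10 steps. After 5 days, cells were fixed and their nuclei stained in one step (final 0.05% Triton X-100, 1% formaldehyde, 1 ug/ml Hoechst), then counted on 4× images. Relative viability is the nuclei count in treated wells divided by that in vehicle wells. Values are medians of duplicate plates.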

Ruxolitinib + Decitabine = compound: N#CC[C@H](C1CCCC1)n1cc(-c2ncnc3[nH]ccc23)cn1 [Ruxolitinib] + Nc1ncn([C@H]2C[C@H](O)[C@@H](CO)O2)c(=O)n1 [Decitabine] (partner 2 µM)
Procedure, shortened: as §1

Ruxolitinib + Lapatinib = compound: N#CC[C@H](C1CCCC1)n1cc(-c2ncnc3[nH]ccc23)cn1 [Ruxolitinib] + CS(=O)(=O)CCNCc1ccc(-c2ccc3ncnc(Nc4ccc(OCc5cccc(F)c5)c(Cl)c4)c3c2)o1 [Lapatinib] (partner 2 µM)
Procedure, shortened: as §1

Vismodegib + Luminespib = compound: CS(=O)(=O)c1ccc(C(=O)Nc2ccc(Cl)c(-c3ccccn3)c2)c(Cl)c1 [Vismodegib] + CCNC(=O)c1noc(-c2cc(C(C)C)c(O)cc2O)c1-c1ccc(CN2CCOCC2)cc1 [Luminespib] (partner 0.01 µM)
Procedure, shortened: as §1

Cell Line | relative viability (Vismodegib + Olaparib; first compound 0.08 µM) | relative viability (Vismodegib + Olaparib; first compound 0.253 µM) | relative viability (Vismodegib + Olaparib; first compound 0.8 µM) | relative viability (Vismodegib + Olaparib; first compound 2.53 µM) | relative viability (Vismodegib + Olaparib; first compound 8 µM) | relative viability (Ruxolitinib + Decitabine; first compound 0.08 µM) | relative viability (Ruxolitinib + Decitabine; first compound 0.253 µM) | relative viability (Ruxolitinib + Decitabine; first compound 0.8 µM) | relative viability (Ruxolitinib + Decitabine; first compound 2.53 µM) | relative viability (Ruxolitinib + Decitabine; first compound 8 µM) | relative viability (Ruxolitinib + Lapatinib; first compound 0.08 µM) | relative viability (Ruxolitinib + Lapatinib; first compound 0.253 µM) | relative viability (Ruxolitinib + Lapatinib; first compound 0.8 µM) | relative viability (Ruxolitinib + Lapatinib; first compound 2.53 µM) | relative viability (Ruxolitinib + Lapatinib; first compound 8 µM) | relative viability (Vismodegib + Luminespib; first compound 0.08 µM) | relative viability (Vismodegib + Luminespib; first compound 0.8 µM) | relative viability (Vismodegib + Luminespib; first compound 2.53 µM) | relative viability (Vismodegib + Luminespib; first compound 8 µM) | relative viability (Vismodegib + Luminespib; first compound 0.253 µM)
NCI-H23 | 0.321 | 0.277 | 0.26 | 0.296 | 0.409 | 0.311 | 0.337 | 0.359 | 0.275 | 0.305 | 1.03 | 1.27 | 1.2 | 0.775 | 0.852 | 0.25 | 0.198 | 0.258 | 0.227 | –
NCI-H322M | 0.753 | 0.679 | 0.695 | 0.704 | 0.776 | 0.718 | 0.702 | 0.744 | 0.693 | 0.889 | 0.638 | 0.68 | 0.67 | 0.687 | 0.873 | 0.876 | 0.881 | 0.812 | 0.818 | 0.797
NCI-H358 | 0.564 | 0.597 | 0.525 | 0.521 | 0.667 | 0.226 | 0.202 | 0.213 | 0.169 | 0.194 | 0.421 | 0.434 | 0.445 | 0.36 | 0.35 | 0.325 | 0.418 | 0.33 | 0.204 | 0.258
NCI-H460 | 0.413 | 0.409 | 0.437 | 0.382 | 0.439 | 0.451 | 0.408 | 0.576 | 0.28 | 0.388 | 0.95 | 1.06 | 1.21 | 0.759 | 1.08 | 0.0373 | 0.038 | 0.0291 | 0.0297 | 0.0299
NCI-H520 | 0.314 | 0.366 | 0.397 | 0.281 | 0.354 | 0.506 | 0.484 | 0.553 | 0.47 | 0.525 | – | 0.815 | 1.04 | 0.588 | 0.671 | 0.24 | 0.198 | 0.207 | 0.212 | 0.225
NCI-H596 | 0.749 | 0.488 | 0.653 | 0.706 | 0.844 | 0.903 | 0.96 | 1.14 | 1.04 | 1.08 | 1.18 | 1.07 | 1.22 | 1.03 | 1.07 | 1.04 | 1.15 | 1.05 | 1.02 | 0.96
NCI-H647 | 0.66 | 0.508 | 0.669 | 0.368 | 0.479 | 0.45 | 0.351 | 0.433 | 0.28 | 0.344 | 1.11 | 1.09 | 1.19 | 0.651 | 1.02 | 0.505 | 0.219 | 0.125 | 0.181 | 0.227
NCI-H650 | 0.385 | 0.385 | 0.396 | 0.316 | 0.387 | 0.364 | 0.38 | 0.28 | 0.342 | 0.332 | – | 0.925 | 1.05 | 0.842 | 0.667 | 0.843 | 0.638 | 0.802 | 0.865 | 0.791
NCI-H661 | 0.837 | 0.69 | 0.745 | 0.715 | 0.718 | 0.547 | 0.548 | 0.588 | 0.484 | 0.505 | 0.518 | 0.564 | 0.614 | 0.452 | 0.606 | 0.945 | 0.934 | 0.876 | 0.889 | 0.909
NCI-H727 | 0.66 | 0.683 | 0.76 | 0.724 | 0.749 | 0.578 | 0.901 | 0.936 | 0.841 | 0.842 | 0.904 | 1.03 | 1.09 | 0.777 | 0.821 | 0.428 | 0.322 | 0.359 | 0.422 | 0.518
NCI-H838 | 0.791 | 0.71 | 0.777 | 0.757 | 0.778 | 0.466 | 0.437 | 0.489 | 0.351 | 0.28 | 1 | 0.803 | 0.873 | 0.446 | 0.406 | 0.247 | 0.33 | 0.409 | 0.331 | 0.271
NCI-H1355 | 0.721 | 0.716 | 0.781 | 0.807 | 0.722 | 0.353 | 0.376 | 0.398 | 0.326 | 0.358 | 0.939 | 0.898 | 1.01 | 0.902 | 0.863 | 0.634 | 0.687 | 0.794 | 0.688 | 0.714
NCI-H1395 | 0.467 | 0.553 | 0.494 | 0.468 | 0.491 | 0.698 | 0.697 | 0.77 | 0.69 | 0.686 | – | 0.879 | 1.16 | 0.777 | 0.944 | 0.708 | 0.535 | 0.624 | 0.621 | 0.764
NCI-H1437 | 0.633 | 0.607 | 0.653 | 0.63 | 0.598 | 0.716 | 0.623 | 0.631 | 0.634 | 0.603 | 0.976 | 0.883 | 0.926 | 0.695 | 0.57 | 0.956 | 1.1 | 1.09 | 1.07 | 1.13
NCI-H1650 | 0.896 | 0.633 | 0.763 | 0.794 | 0.746 | 0.321 | 0.338 | 0.438 | 0.418 | 0.442 | – | 0.826 | 1.05 | 0.761 | 0.89 | 0.214 | 0.212 | 0.178 | 0.18 | 0.192
NCI-H1651 | 0.176 | 0.192 | 0.188 | 0.182 | 0.204 | 0.514 | 0.604 | 0.624 | 0.438 | 0.655 | 0.958 | 0.92 | 0.884 | 0.767 | 0.903 | 0.816 | 0.86 | 0.866 | 0.791 | 0.819
